We go through seven compounds from patent US12115151B2, “Method of treatment of p53 WT tumors” (Dana-Farber Cancer Institute, Inc., priority 2018, dated 2024).

In one experiment the test system is MKL-1 MCC cells. The experiment is described as follows: XTT cell viability assay and synergy testing, MKL-1 cells. Format: cell-based. Conditions: 96 hours; for Response-rep1 / Response-rep2: Lenalidomide 0 nM; for Response: relative viability vs untreated; for sensitivity of MKL-1 cells to MDM2 inhibitor (XTT viability): MKL-1 (p53 wild type); for relative viability (XTT), untreated = 1: combinations with a fixed amount of Lenalidomide (5 uM), replicate columns. The procedure:
(§1) Cell viability assays were performed using Cell Proliferation Kit II (XTT) (Roche) according to the manufacturer's instructions and BH3 profiling was described in Pallis et al. (36). Synergy testing was performed using Compusyn and Synergyfinder (28, 29).
The XTT assay was performed to determine the relative viability (% response) normalized to untreated cells.

The next experiment relates to MKL-1 MCC xenografts. The experiment is described as follows: Xenograft efficacy study. Conditions: individual animals, oral daily, HDM201 40 mg/kg and/or lenalidomide 50 mg/kg; for Tumor Volume Change, Abs Ch = T − T0: tumor volumes in mm3.
The test system of the next experiment is MS-1 cells. Description: XTT viability assay, MS-1 cells. Format: cell-based. Conditions: MS-1 (p53 mutant); 96 hours. How it is done: as §1
The next experiment has as its target CK1α (Homo sapiens, UniProt P48729). The experiment is described as follows: Western blot of CK1α protein levels in MKL-1 cells. Conditions: IMiD 10 μM. Format: cell-based.
In another experiment the test system is p53. The experiment is described as follows: Western blot of p53 response in IMR90-p53DD cells. Format: cell-based, human. Conditions: IMR90 cells expressing p53DD, Nutlin-3 1 μM, 24 hours.

“And” between values parts separate entries of the source, which are not always exact repeats. Identical values can stand only once. “Also recorded” adds a separate entry of the source.

Chain of CK1α (P48729 whole entry): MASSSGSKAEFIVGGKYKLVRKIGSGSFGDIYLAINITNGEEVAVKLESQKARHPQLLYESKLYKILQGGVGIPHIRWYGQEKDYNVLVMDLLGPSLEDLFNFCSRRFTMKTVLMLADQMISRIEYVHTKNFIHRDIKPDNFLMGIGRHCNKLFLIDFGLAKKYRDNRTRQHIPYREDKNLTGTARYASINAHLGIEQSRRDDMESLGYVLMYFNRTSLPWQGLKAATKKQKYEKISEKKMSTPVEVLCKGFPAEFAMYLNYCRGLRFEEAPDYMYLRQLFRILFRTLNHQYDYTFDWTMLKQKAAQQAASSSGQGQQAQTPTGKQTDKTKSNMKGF
Experimental for CK1α: (§2) Confluent cultures of cells were washed with ice-cold phosphate-buffered saline (PBS) and resuspended in EBC lysis buffer (50 mM Tris, pH 8.0, 150 mM NaCl, 0.5% NP-40, 1:10,000-mercaptoethanol, 0.5 mM EDTA) for 10 min on ice and then centrifuged. Clarified lysates were incubated overnight with antibodies and magnetic protein A/G beads (PureProteome magnetic beads, EMD Millipore). […] Quantitative western blotting was performed using the Odyssey near-infrared system (Li-Cor Biotechnology).
Text for MKL-1 MCC xenografts: The study was terminated when the tumor volume reached the maximum permissible size of 2000 mm3.
Experimental for p53: as §2

Consider `COc1ncc(-c2nc3c(n2C(C)C)[C@H](c2ccc(Cl)cc2)N(c2cc(Cl)cn(C)c2=O)C3=O)c(OC)n1` [HDM201, (S)-5-(5-Chloro-1-methyl-2-oxo-1,2-dihydro-pyridin-3-yl)-6-(4-chloro-phenyl)-2-(2,4-dimethoxy-pyrimidin-5-yl)-1-isopropyl-5,6-dihydro-1H-pyrrolo[3,4-d]imidazol-4-one], for which the Response-rep1 in the experiment on MKL-1 MCC cells (HDM201 50 nM) is listed as 90.76%; in the experiment with MKL-1 MCC cells (HDM201 100 nM), 75.8%; in the experiment with MKL-1 MCC cells (HDM201 150 nM), 53.3961%; in the experiment with MKL-1 MCC cells (HDM201 180 nM) it was 33.32%. Also, the Response-rep2 in the experiment with MKL-1 MCC cells (HDM201 50 nM) is recorded as 92.94%; in the experiment with MKL-1 MCC cells (HDM201 100 nM), 77.72%; in the experiment with MKL-1 MCC cells (HDM201 150 nM) it was 61.84%; in the experiment on MKL-1 MCC cells (HDM201 180 nM), 40.87%. In addition, the Response in the experiment on MKL-1 MCC cells (HDM201 50 nM alone) was determined as 93.9107%; in the experiment with MKL-1 MCC cells (HDM201 100 nM alone) it was 90.5417%; with MKL-1 MCC cells (HDM201 150 nM alone) it was 94.8184%; in the experiment with MKL-1 MCC cells (HDM201 180 nM alone), 87.8557%. In addition, the “Tumor Volume Change, % Ch = (T − T0)/T0” value in the experiment with MKL-1 MCC xenografts (day 0) was 0.00%; in the experiment on MKL-1 MCC xenografts (day 4) it was 168.68% and 25.53% and 16.64% and 93.53% and 6.55% and 29.08% and 14.67% and 11.44%; in the experiment on MKL-1 MCC xenografts (day 7), 392.40% and 107.65% and 56.29% and 123.49% and 37.00% and 27.47% and 30.43% and 28.15%; in the experiment with MKL-1 MCC xenografts (day 11), 465.37% and 122.53% and 125.88% and 248.58% and 101.24% and 14.09% and 37.76% and 61.17%; in the experiment with MKL-1 MCC xenografts (day 14), 597.67% and 128.4% and 191.55% and 295.64% and 94.41% and 41.69% and 77.45% and 56.59%; with MKL-1 MCC xenografts (day 18) it was 741.47% and 4165.70% and 234.58% and 350.27% and 114.06% and 20.72% and 81.45% and 83.83%. The “Tumor Volume Change, Abs Ch = T − T0” value was 0.00 with MKL-1 MCC xenografts (day 0); 302.89 and 66.12 and 32.34 and 133.99 and 10.51 and 44.16 and 21.14 and 14.26 with MKL-1 MCC xenografts (day 4); 704.61 and 278.82 and 109.40 and 176.91 and 59.41 and 41.71 and 43.86 and 35.09 in the experiment with MKL-1 MCC xenografts (day 7); 835.64 and 317.36 and 244.65 and 356.12 and 162.53 and 21.39 and 54.43 and 76.25 in the experiment with MKL-1 MCC xenografts (day 11); 1073.19 and 332.66 and 372.29 and 423.53 and 151.58 and 63.30 and 111.64 and 70.55 in the experiment on MKL-1 MCC xenografts (day 14); 1331.39 and 429.17 and 455.90 and 501.79 and 183.12 and 31.46 and 117.41 and 104.49 in the experiment with MKL-1 MCC xenografts (day 18).

Regarding `CNc1ncc(-n2nc(N)c3cc(F)c(-c4ccc(O)c5ccccc45)cc32)c(Cl)c1C` [SC-24-UR99, 4-(3-amino-1-(4-chloro-5-methyl-6-(methylamino)pyridin-3-yl)-5-fluoro-1H-indazol-6-yl)naphthalen-1-ol], the Response in the experiment on MKL-1 MCC cells (SC-24-UR99 50 nM alone) is 103.6933% and 100.5561%; with MKL-1 MCC cells (SC-24-UR99 100 nM alone) it was 99.5168% and 105.263%; in the experiment with MKL-1 MCC cells (SC-24-UR99 150 nM alone), 99.3633% and 93.4308%; with MKL-1 MCC cells (SC-24-UR99 180 nM alone) it was 92.5016% and 89.8385%.

For the compound `COc1cc(C(=O)O)ccc1NC(=O)[C@@H]1N[C@@H](CC(C)(C)C)[C@](C#N)(c2ccc(Cl)cc2F)[C@H]1c1cccc(Cl)c1F` [RG7388], the “sensitivity of MKL-1 cells to MDM2 inhibitor (XTT viability)” value with MKL-1 MCC cells is “sensitive”. The “relative viability (XTT), untreated = 1” value in the experiment on MKL-1 MCC cells (Nutlin-3 or RG7388 level 25 (unit not given)) is 0.7819 and 0.7111 and 0.8222; with MKL-1 MCC cells (Nutlin-3 or RG7388 level 50 (unit not given)), 0.6836 and 0.5814 and 0.6885; in the experiment on MKL-1 MCC cells (Nutlin-3 or RG7388 level 75 (unit not given)) it was 0.553 and 0.4338 and 0.5431; in the experiment on MKL-1 MCC cells (Nutlin-3 or RG7388 level 90 (unit not given)) it was 0.4663 and 0.3695 and 0.5108. In addition, the “sensitivity of MS-1 cells to MDM2 inhibitor (XTT viability)” value in the experiment with MS-1 cells was “not MS-1 cells were sensitive”.

Regarding `Nc1cccc2c1C(=O)N(C1CCC(=O)NC1=O)C2=O` (stereo not shown) [pomalidomide], the CK1α protein levels entry on CK1α is reported as “did not reduce CK1α protein levels; also recorded: to a lesser degree”.

As for `O=C1CCC(N2C(=O)c3ccccc3C2=O)C(=O)N1` (stereo not shown) [thalidomide], the CK1α protein levels result on CK1α was “did not reduce CK1α protein levels; also recorded: not thalidomide”.

For `CC(C)[C@@H](CS(=O)(=O)C(C)C)N1C(=O)[C@@](C)(CC(=O)O)C[C@H](c2cccc(Cl)c2)[C@H]1c1ccc(Cl)cc1` [AMG232], the “sensitivity of MKL-1 cells to MDM2 inhibitor (XTT viability)” value with MKL-1 MCC cells is “sensitive”. In the experiment with MS-1 cells, the “sensitivity of MS-1 cells to MDM2 inhibitor (XTT viability)” value is “not MS-1 cells were sensitive”.

In the case of `COc1ccc(C2=N[C@@H](c3ccc(Cl)cc3)[C@@H](c3ccc(Cl)cc3)N2C(=O)N2CCNC(=O)C2)c(OC(C)C)c1` [Nutlin-3], the “sensitivity of MKL-1 cells to MDM2 inhibitor (XTT viability)” value with MKL-1 MCC cells is reported as “sensitive”. Also, the Response in the experiment with MKL-1 MCC cells (Nutlin-3 1250 nM alone) is 96.8309% and 82.16%; in the experiment with MKL-1 MCC cells (Nutlin-3 2500 nM alone) it was 65.56% and 72.5696%; in the experiment on MKL-1 MCC cells (Nutlin-3 3750 nM alone), 44.2% and 63.6648%; in the experiment on MKL-1 MCC cells (Nutlin-3 4500 nM alone) it was 41.19% and 56.8421%. For the same compound, the “sensitivity of MS-1 cells to MDM2 inhibitor (XTT viability)” value in the experiment with MS-1 cells was “not MS-1 cells were sensitive”. In addition, the p53 response entry in the experiment with p53 was “does not elicit p53 response”; in the experiment on p53 (listed as nutlin-3), “did not increase p53, p-p53 and PUMA levels”.
